Experiment: xn = mol fraction of the nth substance listed
Conditions: Liquid; for viscosity: 100.5 kPa; for mass density: 101 kPa

CCCCCCCC(=O)OCC [ethyl octanoate] + CCO
Conditions	mass density, 288.15 K [kg/m3]	mass density, 298.15 K [kg/m3]	mass density, 308.15 K [kg/m3]	mass density, 318.15 K [kg/m3]	viscosity, 288.15 K [mPa·s]	viscosity, 298.15 K [mPa·s]	viscosity, 308.15 K [mPa·s]	viscosity, 318.15 K [mPa·s]
x1 = 0.05	805.14	796.5	787.73	778.81	1.322	1.094	0.915	0.772
x1 = 0.1	814.37	805.66	796.82	787.83	1.299	1.081	0.907	0.773
x1 = 0.15	822.04	813.27	804.39	795.36	1.306	1.087	0.915	0.78
x1 = 0.2	828.52	819.74	810.84	801.79	1.32	1.098	0.926	0.791
x1 = 0.25	833.98	825.17	816.25	807.19	1.337	1.112	0.94	0.804
x1 = 0.3	838.69	829.87	820.94	811.88	1.356	1.129	0.953	0.817
x1 = 0.35	842.77	833.94	825.02	815.96	1.375	1.145	0.969	0.831
x1 = 0.4	846.39	837.55	828.63	819.58	1.398	1.164	0.984	0.844
x1 = 0.45	849.59	840.77	831.86	822.83	1.42	1.183	1	0.859
x1 = 0.5	852.45	843.63	834.72	825.71	1.443	1.202	1.016	0.873
x1 = 0.55	855.04	846.23	837.34	828.36	1.468	1.222	1.033	0.888
x1 = 0.6	857.4	848.6	839.72	830.77	1.492	1.242	1.05	0.903
x1 = 0.65	859.54	850.77	841.92	832.99	1.517	1.262	1.068	0.917
x1 = 0.7	861.52	852.76	843.94	835.05	1.542	1.284	1.085	0.933
x1 = 0.75	863.4	854.68	845.88	837.01	1.568	1.306	1.103	0.948
x1 = 0.8	865.13	856.41	847.64	838.81	1.595	1.327	1.121	0.964
x1 = 0.85	866.72	858	849.25	840.47	1.623	1.35	1.14	0.979
x1 = 0.9	868.19	859.5	850.78	842.05	1.649	1.371	1.159	0.996
x1 = 0.95	869.6	860.93	852.26	843.57	1.673	1.391	1.177	1.013
x1 = 1	870.79	862.15	853.52	844.87	1.697	1.411	1.193	1.027

CCOC(=O)Cc1ccccc1 [ethyl phenylacetate] + CCO
Conditions	mass density, 288.15 K [kg/m3]	mass density, 298.15 K [kg/m3]	mass density, 308.15 K [kg/m3]	mass density, 318.15 K [kg/m3]	viscosity, 288.15 K [mPa·s]	viscosity, 298.15 K [mPa·s]	viscosity, 308.15 K [mPa·s]	viscosity, 318.15 K [mPa·s]
x1 = 0.05	825.34	816.54	807.65	798.61	1.366	1.127	0.947	0.798
x1 = 0.1	852	843.05	834	824.82	1.393	1.151	0.967	0.823
x1 = 0.15	874.72	865.65	856.49	847.17	1.447	1.195	1.003	0.855
x1 = 0.2	894.42	885.25	875.99	866.6	1.513	1.244	1.044	0.891
x1 = 0.25	911.6	902.37	893.03	883.57	1.584	1.298	1.089	0.93
x1 = 0.3	926.72	917.42	908.03	898.52	1.663	1.357	1.138	0.971
x1 = 0.35	940.14	930.79	921.36	911.82	1.742	1.418	1.188	1.012
x1 = 0.4	952.17	942.79	933.33	923.77	1.822	1.479	1.239	1.055
x1 = 0.45	963.02	953.61	944.13	934.56	1.904	1.543	1.292	1.099
x1 = 0.5	972.79	963.35	953.86	944.28	1.989	1.61	1.344	1.145
x1 = 0.55	981.67	972.24	962.73	953.16	2.076	1.677	1.399	1.191
x1 = 0.6	989.81	980.37	970.86	961.29	2.164	1.747	1.455	1.238
x1 = 0.65	997.27	987.81	978.31	968.75	2.255	1.821	1.513	1.286
x1 = 0.7	1004.13	994.68	985.19	975.65	2.348	1.895	1.571	1.336
x1 = 0.75	1010.49	1001.03	991.56	982.04	2.446	1.974	1.635	1.387
x1 = 0.8	1016.36	1006.93	997.48	987.98	2.555	2.053	1.702	1.441
x1 = 0.85	1021.84	1012.41	1002.97	993.53	2.672	2.14	1.772	1.498
x1 = 0.9	1026.95	1017.55	1008.14	998.73	2.79	2.23	1.847	1.558
x1 = 0.95	1031.75	1022.36	1012.99	1003.61	2.919	2.33	1.914	1.605
x1 = 1	1036.35	1026.96	1017.6	1008.26	3.002	2.384	1.948	1.624

From the NIST ThermoML archive (doi:10.1021/je050389b)
